The source of these data is patent US12421210B2, “Fused bicyclic heterocycles as therapeutic agents” (NEW YORK UNIVERSITY, priority 2018, dated 2025).

The IC50 is the concentration that inhibits the measured activity by half.

Each structure is given as a SMILES string. Where only a bound is given, the exact number is not on record here.

For one assay, the target named is human NAMPT enzyme (His-hNAMPT) (Homo sapiens (Human), UniProt P43490). Briefly: NAMPT enzymatic inhibition assay (fluorescence, NADH product). To be noted: [BPS]; read-out: NAMPT IC50 (μM) [BPS]. The format is biochemical.
human NAMPT enzyme (His-hNAMPT), sequence (P43490 whole entry): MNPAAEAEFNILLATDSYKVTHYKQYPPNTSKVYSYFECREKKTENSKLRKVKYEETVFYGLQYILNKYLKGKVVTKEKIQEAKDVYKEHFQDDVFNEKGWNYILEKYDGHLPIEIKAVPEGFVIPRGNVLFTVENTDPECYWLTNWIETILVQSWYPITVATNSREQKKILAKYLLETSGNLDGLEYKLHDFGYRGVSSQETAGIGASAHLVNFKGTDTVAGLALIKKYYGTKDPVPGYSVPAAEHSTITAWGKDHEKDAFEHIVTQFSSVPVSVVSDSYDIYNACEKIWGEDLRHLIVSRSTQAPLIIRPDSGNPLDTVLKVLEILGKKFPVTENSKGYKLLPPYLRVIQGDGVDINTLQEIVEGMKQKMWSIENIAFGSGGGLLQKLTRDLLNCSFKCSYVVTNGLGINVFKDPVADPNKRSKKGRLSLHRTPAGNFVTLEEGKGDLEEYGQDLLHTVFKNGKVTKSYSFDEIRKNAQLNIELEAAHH
As for `O=C(NCC[C@@H]1[C@H]2CN(S(=O)(=O)C3CCOCC3)C[C@@H]12)c1ccc2nccn2c1` [Example 68, N-(2-((1R,5S,6s)-3-((tetrahydro-2H-pyran-4-yl)sulfonyl)-3-azabicyclo[3.1.0]hexan-6-yl)ethyl)imidazo[1,2-a]pyridine-6-carboxamide], the half-maximal inhibitory concentration (IC50) lay within 1 to 29 µM.

Regarding `CC(C)(C)CNC(=O)N1C[C@@H]2[C@@H](CCNC(=O)c3cc4ccncc4o3)[C@@H]2C1` [Example 69, N-(2-((1R,5S,6s)-3-(neopentylcarbamoyl)-3-azabicyclo[3.1.0]hexan-6-yl)ethyl)furo[2,3-c]pyridine-2-carboxamide], the IC50 lay in the range of 0.5 to 0.99 µM.

As for `O=C(NCC[C@@H]1[C@H]2CN(C(=O)N3CCCC3)C[C@@H]12)c1cc2ccncc2o1` [Example 70, N-(2-((1R,5S,6s)-3-(pyrrolidine-1-carbonyl)-3-azabicyclo[3.1.0]hexan-6-yl)ethyl)furo[2,3-c]pyridine-2-carboxamide], the IC50 lay in the range of 0.01 to 0.49 µM.

As for `O=C(NCC[C@@H]1[C@H]2CN(C(=O)OC3CCCC3)C[C@@H]12)c1cc2ccncc2o1` [Example 71, (1R,5S,6s)-(cyclopentyl) 6-(2-(furo[2,3-c]pyridine-2-carboxamido)ethyl)-3-azabicyclo[3.1.0]hexane-3-carboxylate], the IC50 is 0.01 to 0.49 µM.

For the molecule `O=C(NCC[C@@H]1[C@H]2CN(S(=O)(=O)c3ccc(F)cc3)C[C@@H]12)c1cc2ccncc2o1` [Example 72, N-(2-((1R,5S,6s)-3-((4-fluorophenyl)sulfonyl)-3-azabicyclo[3.1.0]hexan-6-yl)ethyl)furo[2,3-c]pyridine-2-carboxamide], the IC50 was in the range of 0.01 to 0.49 µM.

On to `O=C(NCC[C@@H]1[C@H]2CN(S(=O)(=O)C3CCOCC3)C[C@@H]12)c1cc2ccncc2o1` [Example 73, N-(2-((1R,5S,6s)-3-((tetrahydro-2H-pyran-4-yl)sulfonyl)-3-azabicyclo[3.1.0]hexan-6-yl)ethyl)furo[2,3-c]pyridine-2-carboxamide], for which the IC50 fell in the range of 1 to 29 µM.

In the case of `CC1(OC(=O)N2C[C@@H]3[C@@H](CCNC(=O)c4cc5cc(N)ncc5s4)[C@@H]3C2)COC1` [Example 74, (1R,5S,6s)-3-methyloxetan-3-yl 6-(2-(5-aminothieno[2,3-c]pyridine-2-carboxamido)ethyl)-3-azabicyclo[3.1.0]hexane-3-carboxylate], the concentration for half-maximal inhibition (IC50) was 0.01 to 0.49 µM.

Turning to `CC(C)(C)NC(=O)N1C[C@@H]2[C@@H](CCNC(=O)/C=C/c3cccnc3)[C@@H]2C1` [Example 75, (1R,5S,6s)-N-(tert-butyl)-6-(2-((E)-3-(pyridin-3-yl)acrylamido)ethyl)-3-azabicyclo[3.1.0]hexane-3-carboxamide], the IC50 lay within 0.01 to 0.49 µM.

Turning to `O=C(NCC[C@@H]1[C@H]2CN(C(=O)c3ccccc3)C[C@@H]12)c1cnc2nccn2c1` [Example 76, N-(2-((1R,5S,6s)-3-benzoyl-3-azabicyclo[3.1.0]hexan-6-yl)ethyl)imidazo[1,2-a]pyrimidine-6-carboxamide], the IC50 is 0.01 to 0.49 µM.

For the molecule `CC(C)(C)NC(=O)N1C[C@@H]2[C@@H](CCNC(=O)c3cnc4nccn4c3)[C@@H]2C1` [Example 77, N-(2-((1R,5S,6s)-3-(tert-butylcarbamoyl)-3-azabicyclo[3.1.0]hexan-6-yl)ethyl)imidazo[1,2-a]pyrimidine-6-carboxamide], the concentration for half-maximal inhibition (IC50) was 0.01 to 0.49 µM.

As for `O=C(NCC[C@@H]1[C@H]2CN(C(=O)Nc3ccccc3)C[C@@H]12)c1cnc2nccn2c1` [Example 78, N-(2-((1R,5S,6s)-3-(phenylcarbamoyl)-3-azabicyclo[3.1.0]hexan-6-yl)ethyl)imidazo[1,2-a]pyrimidine-6-carboxamide], the IC50 lay within 0.5 to 0.99 µM.

As to `O=C(NCC[C@@H]1[C@H]2CN(C(=O)OC3CCOCC3)C[C@@H]12)c1cnc2nccn2c1` [Example 79, (1R,5S,6s)-tetrahydro-2H-pyran-4-yl 6-(2-(imidazo[1,2-a]pyrimidine-6-carboxamido)ethyl)-3-azabicyclo[3.1.0]hexane-3-carboxylate], the IC50 was in the range of 0.01 to 0.49 µM.

For the molecule `O=C(NCC[C@@H]1[C@H]2CN(S(=O)(=O)C3CCOCC3)C[C@@H]12)c1cnc2nccn2c1` [Example 80, N-(2-((1R,5S,6s)-3-((tetrahydro-2H-pyran-4-yl)sulfonyl)-3-azabicyclo[3.1.0]hexan-6-yl)ethyl)imidazo[1,2-a]pyrimidine-6-carboxamide], the IC50 was 1 to 29 µM.

Regarding `CC(C)(C)NC(=O)N1C[C@@H]2[C@@H](CCNC(=O)c3cc(-c4cccnc4)on3)[C@@H]2C1` [Example 81, N-(2-((1R,5S,6s)-3-(tert-butylcarbamoyl)-3-azabicyclo[3.1.0]hexan-6-yl)ethyl)-5-(pyridin-3-yl)isoxazole-3-carboxamide], the IC50 is below 0.01 µM.

As for `CC(C)(C)NC(=O)N1C[C@@H]2[C@@H](CCNC(=O)c3cc4cnccc4[nH]3)[C@@H]2C1` [Example 82, N(2-((1R,5S,6s)-3-(tert-butylcarbamoyl)-3-azabicyclo[3.1.0]hexan-6-yl)ethyl)-1H-pyrrolo[3,2-c]pyridine-2-carboxamide], the IC50 lay in the range of 0.01 to 0.49 µM.

On to `O=C(NCC[C@@H]1[C@H]2CN(C(=O)OC3CCOCC3)C[C@@H]12)c1cc2cnccc2[nH]1` [Example 83, (1R,5S,6s)-tetrahydro-2H-pyran-4-yl 6-(2-(1H-pyrrolo[3,2-c]pyridine-2-carboxamido)ethyl)-3-azabicyclo[3.1.0]hexane-3-carboxylate], for which the IC50 is 0.01 to 0.49 µM.

`O=C(NCC[C@@H]1[C@H]2CN(S(=O)(=O)C3CCOCC3)C[C@@H]12)c1cc2cnccc2[nH]1` [Example 84, N-(2-((1R,5S,6s)-3-((tetrahydro-2H-pyran-4-yl)sulfonyl)-3-azabicyclo[3.1.0]hexan-6-yl)ethyl)-1H-pyrrolo[3,2-c]pyridine-2-carboxamide]: the IC50 was 0.5 to 0.99 µM.

`Nc1ccc(/C=C/C(=O)NCC[C@@H]2[C@H]3CN(C(=O)c4ccc(F)cc4)C[C@@H]23)cn1` [Example 86, (E)-3-(6-aminopyridin-3-yl)-N-(2-((1R,5S,6s)-3-(4-fluorobenzoyl)-3-azabicyclo[3.1.0]hexan-6-yl)ethyl)acrylamide]: the IC50 was 0.01 to 0.49 µM.

As to `Cc1nc(C)c(C(=O)N2C[C@@H]3[C@@H](CCNC(=O)/C=C/c4ccc(N)nc4)[C@@H]3C2)o1` [Example 87, (E)-3-(6-aminopyridin-3-yl)-N-(2-((1R,5S,6s)-3-(2,4-dimethyloxazole-5-carbonyl)-3-azabicyclo[3.1.0]hexan-6-yl)ethyl)acrylamide], the half-maximal inhibitory concentration (IC50) lay within 0.01 to 0.49 µM.

For the molecule `Cc1nn(C)c(C)c1C(=O)N1C[C@@H]2[C@@H](CCNC(=O)/C=C/c3ccc(N)nc3)[C@@H]2C1` [Example 88, (E)-3-(6-aminopyridin-3-yl)-N-(2-((1R,5S,6s)-3-(1,3,5-trimethyl-1H-pyrazole-4-carbonyl)-3-azabicyclo[3.1.0]hexan-6-yl)ethyl)acrylamide], the IC50 fell in the range of 0.01 to 0.49 µM.

On to `Nc1ccc(/C=C/C(=O)NCC[C@@H]2[C@H]3CN(C(=O)c4cccc(F)c4)C[C@@H]23)cn1` [Example 89, (E)-3-(6-aminopyridin-3-yl)-N-(2-((1R,5S,6s)-3-(3-fluorobenzoyl)-3-azabicyclo[3.1.0]hexan-6-yl)ethyl)acrylamide], for which the IC50 fell in the range of 0.01 to 0.49 µM.

For the molecule `Nc1ccc(/C=C/C(=O)NCC[C@@H]2[C@H]3CN(C(=O)c4ccc(OC(F)F)cc4)C[C@@H]23)cn1` [Example 90, (E)-3-(6-aminopyridin-3-yl)-N-(2-((1R,5S,6s)-3-(4-(difluoromethoxy)benzoyl)-3-azabicyclo[3.1.0]hexan-6-yl)ethyl)acrylamide], the IC50 fell in the range of 0.01 to 0.49 µM.

On to `Nc1ccc(/C=C/C(=O)NCC[C@@H]2[C@H]3CN(C(=O)c4cccc(OC(F)F)c4)C[C@@H]23)cn1` [Example 91, (E)-3-(6-aminopyridin-3-yl)-N-(2-((1R,5S,6s)-3-(3-(difluoromethoxy)benzoyl)-3-azabicyclo[3.1.0]hexan-6-yl)ethyl)acrylamide], for which the IC50 lay in the range of 0.01 to 0.49 µM.

With `Cc1ccncc1C(=O)N1C[C@@H]2[C@@H](CCNC(=O)/C=C/c3ccc(N)nc3)[C@@H]2C1` [Example 92, (E)-3-(6-aminopyridin-3-yl)-N-(2-((1R,5S,6s)-3-(4-methylnicotinoyl)-3-azabicyclo[3.1.0]hexan-6-yl)ethyl)acrylamide], the IC50 lay within 0.01 to 0.49 µM.

As to `CN1CCC(c2ccc(C(=O)N3C[C@@H]4[C@@H](CCNC(=O)/C=C/c5ccc(N)nc5)[C@@H]4C3)cc2)CC1` [Example 93, (E)-3-(6-aminopyridin-3-yl)-N-(2-((1R,5S,6s)-3-(4-(1-methylpiperidin-4-yl)benzoyl)-3-azabicyclo[3.1.0]hexan-6-yl)ethyl)acrylamide], the IC50 was 0.01 to 0.49 µM.

Turning to `Nc1ccc(/C=C/C(=O)NCC[C@@H]2[C@H]3CN(C(=O)CC4CCOCC4)C[C@@H]23)cn1` [Example 94, (E)-3-(6-aminopyridin-3-yl)-N-(2-((1R,5S,6s)-3-(2-(tetrahydro-2H-pyran-4-yl)acetyl)-3-azabicyclo[3.1.0]hexan-6-yl)ethyl)acrylamide], the IC50 was 0.01 to 0.49 µM.

As for `Nc1ccc(/C=C/C(=O)NCC[C@@H]2[C@H]3CN(C(=O)C4CCOCC4)C[C@@H]23)cn1` [Example 95, (E)-3-(6-aminopyridin-3-yl)-N-(2-((1R,5S,6s)-3-(tetrahydro-2H-pyran-4-carbonyl)-3-azabicyclo[3.1.0]hexan-6-yl)ethyl)acrylamide], the IC50 fell in the range of 0.01 to 0.49 µM.

In the case of `CC(C)(C)CNC(=O)N1C[C@@H]2[C@@H](CCNC(=O)/C=C/c3ccc(N)nc3)[C@@H]2C1` [Example 96, (1R,5S,6s)-6-(2-((E)-3-(6-aminopyridin-3-yl)acrylamido)ethyl)-N-neopentyl-3-azabicyclo[3.1.0]hexane-3-carboxamide], the IC50 was in the range of 0.01 to 0.49 µM.

`O=C(NCC[C@@H]1[C@H]2CN(C(=O)c3ccc(F)cc3)C[C@@H]12)c1cc2ccncc2o1` [Example 97, N-(2-((1R,5S,6s)-3-(4-fluorobenzoyl)-3-azabicyclo[3.1.0]hexan-6-yl)ethyl)furo[2,3-c]pyridine-2-carboxamide]: the IC50 is 0.01 to 0.49 µM.

Staying with this assay, now noted: [HDB]; read-out: NAMPT IC50 (μM) [HDB].
As for `O=C(NCC[C@@H]1[C@H]2CN(C(=O)OC3CCOCC3)C[C@@H]12)c1cc2ccncc2s1` [Example 85, (1R,5S,6s)-tetrahydro-2H-pyran-4-yl 6-(2-(thieno[2,3-c]pyridine-2-carboxamido)ethyl)-3-azabicyclo[3.1.0]hexane-3-carboxylate], the IC50 is 0.01 to 0.49 µM.
